Experimental data taken from patent publication US9133235B2, “Macrocyclic antagonists of the motilin receptor for treatment of gastrointestinal dysmotility disorders” (Ocera Therapeutics, Inc., priority 2006, dated 2015).
“And” between values parts separate entries of the source, which are not always exact repeats. Equal entries are not always repeated.

Experiments:
[1] = Oral bioavailability in rat of representative formulations of compound 552; format: in vivo
Source text: The pharmacokinetic behavior of compound of the invention can be ascertained by methods well known to those skilled in the art. (Wilkinson, G. R. “Pharmacokinetics: The Dynamics of Drug Absorption, Distribution, and Elimination” in Goodman & Gilman's The Pharmacological Basis of Therapeutics, Tenth Edition, Hardman, J. G.; Limbird, L. E., Eds., McGraw Hill, Columbus, Ohio, 2001, Chapter 1.) The following method was used to investigate the pharmacokinetic parameters (elimination half-life, total plasma clearance, etc.) for intravenous, subcutaneous and oral administration of compounds of the present invention.
Preparation of Representative Formulations of Compounds of the Invention
The pharmacokinetic parameters of representative formulations are determined through established methods known to those skilled-in the art as previously referenced in Method 3-I. Results with representative formulations for a representative compound of the present invention are shown below.

[2] = system: irinotecan-induced CID in dogs; test: Dog model of chemotherapy-induced diarrhea; format: in vivo; conditions: FIG. 19
Source text: The objective of this study was to determine the efficacy of representative macrocyclic compounds of the present invention in chemotherapy-induced diarrhea (CID) following intravenous administration to the male beagle dog (Canis familiaris) for up to 32 days. Comparison with existing agents utilized for this condition, octreotide and loperamide, was an additional objective.
Twenty-one (21) male naïve Beagle dogs were randomly assigned to 7 groups and treated as follows:
The test compounds, controls and comparators were prepared at appropriate intervals. All formulations intended for administration to the test animals were stored refrigerated at 2-8° C. Irinotecan was obtained as a sterile solution for intravenous injection containing irinotecan hydrochloride trihydrate at a concentration of 20 mg/mL, ready to use. The irinotecan formulation for dosing the animals (0.5 mg/mL) in Group 1 (Cycles 1 and 2 only) was achieved by dilution of 20 mg/mL formulation with 5% dextrose for injection, USP. […]
A total of 21 males and 2 spare males were obtained from a commercial supplier (for example Marshall BioResources, North Rose, N.Y.) with ages 5 to 7 months old at onset of treatment and weights 6-9 kg at onset of treatment. […] Temperature and relative humidity were monitored continuously and recorded 4 times daily. […]

[3] = oral 8 mg/kg, 5% HP-β-CD in water
[4] = oral 8 mg/kg, Cremophor EL/Lysorbate 80/Soybean oil
[5] = oral 8 mg/kg, Oleic Acid/Labrafil
[6] = plasma, IV 2 mg/kg, 5% HP-β-CD in water
[7] = plasma, iv, 2 mg/kg, IV 2 mg/kg, 5% HP-β-CD in water
[8] = plasma, po, 8 mg/kg, oral 8 mg/kg, 5% HP-β-CD in water
[9] = plasma, po, 8 mg/kg, oral 8 mg/kg, Cremophor EL/Lysorbate 80/Soybean oil
[10] = plasma, po, 8 mg/kg, oral 8 mg/kg, Oleic Acid/Labrafil

- F (%) (average) [1, 3]: 10 ± 5%
- Tmax (min) [1, 3]: 5/15
- F (%) (individual results) ([1]; oral 8 mg/kg, 5% HP-β-CD in water, 8 mg/kg): 6% and 15% and 9%
- F (%) (average) [1, 4]: 16 ± 1%
- Tmax (min) [1, 4]: 15/30
- F (%) (individual results) ([1]; oral 8 mg/kg, Cremophor EL/Lysorbate 80/Soybean oil, 8 mg/kg): 18% and 15% and 16%
- F (%) (average) [1, 5]: 14 ± 7%
- Tmax (min) [1, 5]: 30/60
- F (%) (individual results) ([1]; oral 8 mg/kg, Oleic Acid/Labrafil, 8 mg/kg): 7% and 21% and 15%
- Clearance [1, 6]: 55 ± 10 mL/min/kg
- Tmax [1, 6]: 5 min
- half-life [1, 6]: 45 ± 13 min
- AUC(0-inf) [1, 7]: 616 ng·h/mL
- Cmax [1, 7]: 1720 ± 299 ng/mL
- AUC(0-inf) [1, 8]: 255 ng·h/mL
- Cmax [1, 8]: 369 ± 97 ng/mL
- AUC(0-inf) [1, 9]: 397 ng·h/mL
- Cmax [1, 9]: 229 ± 162 ng/mL
- AUC(0-inf) [1, 10]: 357 ng·h/mL
- Cmax [1, 10]: 143 ± 77 ng/mL
SMILES: CCC[C@@H]1NC(=O)[C@@H](C(C)C)NC(=O)[C@@H](Cc2ccc(O)c(Cl)c2)N[C@@H](C)COc2ccccc2CCCNC1=O [Compound 552]
- efficacy in the treatment of irinotecan-induced CID ([2]; intravenous infusion, versus the current standard of care (octreotide, loperamide)): superior efficacy
- onset and duration of action in irinotecan-induced CID ([2]; versus the current standard of care): quicker onset and longer duration of action
